Data reported in patent publication US20060058286A1, “Methods of treating HIV infection” (priority 2004, published 2006).
pEC50: −log10 of the molar value.

How the values were obtained:
HIV-1 NL4-3 [1] = assay: microbe, parasite or virus in culture; conditions: Human immunodeficiency virus 1, NL43, MT2, 120 h
Experimental: (§1) Virus and cell lines. The T-cell line, MT-2 was obtained through the AIDS Research and Reference Reagent Program, NIAID and was contributed by Dr. D. Richman. The cell line was cultured in RPMI 1640 medium supplemented with 10% fetal bovine serum, 2 mM L-glutamine and sub-cultured twice a week. The NL4-3 strain of HIV-1 was obtained from the AIDS Research and Reference Reagent Program. Both virus stocks were amplified and titered in MT-2 cells using a virus infectivity assay.
(§2) Drug Susceptibility and Cytotoxicity Assays. For drug susceptibility assays, MT-2 cells were infected with HIV-1 NL4-3 at an MOI of 0.001, and seeded into 96-well microtiter plates (2.5×10^5 cells/ml) containing serial dilutions of test compounds. […] Each drug ratio consisted of an array of 3-fold serial dilutions, and was performed in quadruplicate. The plates were incubated at 37° C./5% CO2. The MT-2 cells infected with HIV-1 NL4-3 were incubated for 5 days. On day-five post-infection, 20 μl from each well was harvested and quantitated by a reverse transcriptase (RT) assay or an MTS assay. Cytotoxicity assays were performed using uninfected cells, exposed to the same drug combinations, and incubated for five days. Cell viability was determined by an XTT assay. The CC50 values were calculated by using the exponential form of the median effect equation as mentioned below for calculation of EC50.
(§3) In this equation, Fa stands for “fraction affected,” and represents the fraction of the viral load that has been inactivated.
In carrying out the combination experiments below, the EC50 for Compound 1 and each comparator compound was determined during the course of each study, and used in the subsequent data analysis.

HIV-1 NL4-3 [2] = assay: Two-drug combination study with Compound 1 (combination indices); type: cell-based; conditions: for Combination Indices at 50% HIV Inhibition (Confidence Interval) / Combination Indices at 75% HIV Inhibition (Confidence Interval) / Combination Indices at 90% HIV Inhibition (Confidence Interval): 95% CI in parentheses; for Overall Result: overall antiviral effect of the two-drug combination with Compound 1, all ratios and effective levels
Experimental: as §1, §2
Analysis of Drug Combination Effects. For determination of CI values, drugs were diluted in a fixed ratio and multiple ratios were analyzed. The drug serial dilutions spanned a range of concentrations near the EC50 value of each compound, so that equivalent antiviral activities could be compared. Concentration-response curves were estimated for each individual drug and every combination using the median-effect equation. The equation was fit using a nonlinear regression routine (Proc Nlin) in PC SAS version 8.01 (SAS Institute Inc., SAS Version 8.01, Cary, N.C.: SAS Institute Inc., 1990).
as §3
To assess antiviral effects of different drug combination treatments, combination indices (CIs) were calculated according to Chou and Rideout. The combination index was computed as CI=[D]1/[Dm]1+[D]2/[Dm]2
In this equation [Dm]1 and [Dm]2 are the concentrations of drugs that would individually produce a specific level of effect, while [D]1 and [D]2 are the concentrations of drugs in combination that would produce the same level of effect.
Theoretically, additivity is implied if the CI is equal to one, synergy if the CI is less than one, and antagonism if the CI is greater than one. […] At best, we can construct a range that contains the likely values for the CI, given the noise in the data. In this report, these ranges are reported in parentheses next to each point estimate of the CI. […] If the range fell entirely above 1.0, we would infer antagonistic behavior. If the range were to include 1.0, we would infer additivity.

[3] = combination with Compound 1, EC50 ratio 1:1 (Compound 1:comparator)
[4] = combination with Compound 1, EC50 ratio 1:2.5 (Compound 1:comparator)
[5] = combination with Compound 1, EC50 ratio 2.5:1 (Compound 1:comparator)

| SMILES | pEC50 (HIV-1 NL4-3 [1]) | Combination Indices at 50% HIV Inhibition (Confidence Interval) (HIV-1 NL4-3 [2]; [3]) | Combination Indices at 75% HIV Inhibition (Confidence Interval) (HIV-1 NL4-3 [2]; [3]) | Combination Indices at 90% HIV Inhibition (Confidence Interval) (HIV-1 NL4-3 [2]; [3]) | Combination Indices at 50% HIV Inhibition (Confidence Interval) (HIV-1 NL4-3 [2]; [4]) | Combination Indices at 75% HIV Inhibition (Confidence Interval) (HIV-1 NL4-3 [2]; [4]) | Combination Indices at 90% HIV Inhibition (Confidence Interval) (HIV-1 NL4-3 [2]; [4]) | Combination Indices at 50% HIV Inhibition (Confidence Interval) (HIV-1 NL4-3 [2]; [5]) | Combination Indices at 75% HIV Inhibition (Confidence Interval) (HIV-1 NL4-3 [2]; [5]) | Combination Indices at 90% HIV Inhibition (Confidence Interval) (HIV-1 NL4-3 [2]; [5]) | Overall Result (HIV-1 NL4-3 [2]) | Overall Result (HIV-1 NL4-3 [2]; listed as efavirenz) | combination effect at the 13:1 and 82.5:1 molar ratios (HIV-1 NL4-3 [2]; combination with Compound 1) | combination effect at the 33:1 molar ratio (HIV-1 NL4-3 [2]; combination with Compound 1) | Overall Result (HIV-1 NL4-3 [2]; listed as nevirapine) | combination effect at the 5:1 and 2:1 molar ratios (HIV-1 NL4-3 [2]; combination with Compound 1, all effective levels) | combination effect at the 12.5:1 molar ratio (HIV-1 NL4-3 [2]; combination with Compound 1, only at the 75% and 90% effective levels) | Overall Result (HIV-1 NL4-3 [2]; listed as nelfinavir) |
| --- | --- | --- | --- | --- | --- | --- | --- | --- | --- | --- | --- | --- | --- | --- | --- | --- | --- | --- |
| O=C1Nc2ccc(Cl)cc2[C@@](C#CC2CC2)(C(F)(F)F)O1 [Efavirenz, efavirenz] | 8.82 | 0.57 (0.44, 0.70) | 0.56 (0.38, 0.74) | 0.56 (0.28, 0.84) | 0.49 (0.36, 0.62) | 0.54 (0.34, 0.75) | 0.61 (0.26, 0.97) | 0.60 (0.45, 0.74) | 0.51 (0.33, 0.68) | 0.43 (0.20, 0.67) | Synergistic | strong synergistic effects |  |  |  |  |  |  |
| COc1ncc(OC)c2c(C(=O)C(=O)N3CCN(C(=O)c4ccccc4)CC3)c[nH]c12 [Compound 3] | 9.00 | 0.92 (0.77, 1.06) | 0.90 (0.70, 1.10) | 0.89 (0.58, 1.21) | 0.71 (0.60, 0.82) | 0.66 (0.51, 0.80) | 0.61 (0.40, 0.82) | 0.41 (0.36, 0.47) | 0.41 (0.33, 0.48) | 0.40 (0.28, 0.52) | synergistic to additive |  | moderate synergy | additivity |  |  |  |  |
| CC(C)c1nc(CN(C)C(=O)N[C@H](C(=O)N[C@@H](Cc2ccccc2)C[C@H](O)[C@H](Cc2ccccc2)NC(=O)OCc2cncs2)C(C)C)cs1 [Ritonavir, ritonavir] | 7.62 | 1.35 (0.72, 1.97) | 1.74 (0.61, 2.87) | 2.56 (0.00, 5.18) | 1.23 (0.73, 1.74) | 1.24 (0.53, 1.96) | 1.39 (0.13, 2.65) | 1.37 (0.95, 1.80) | 1.18 (0.67, 1.68) | 1.13 (0.37, 1.88) | Additive |  |  |  |  |  |  |  |
| Cc1ccnc2c1NC(=O)c1cccnc1N2C1CC1 [Nevirapine, nevirapine] | 7.07 | 0.51 (0.39, 0.63) | 0.30 (0.20, 0.40) | 0.18 (0.08, 0.27) | 0.63 (0.42, 0.83) | 0.40 (0.22, 0.59) | 0.26 (0.07, 0.46) | 0.52 (0.39, 0.64) | 0.32 (0.22, 0.43) | 0.21 (0.10, 0.31) | Synergistic |  |  |  | strong synergistic effects |  |  |  |
| Cc1c(O)cccc1C(=O)N[C@@H](CSc1ccccc1)[C@H](O)CN1C[C@H]2CCCC[C@H]2C[C@H]1C(=O)NC(C)(C)C [Nelfinavir, nelfinavir] | 8.10 | 0.55 (0.45, 0.65) | 0.57 (0.42, 0.71) | 0.59 (0.35, 0.83) | 0.41 (0.34, 0.49) | 0.50 (0.38, 0.63) | 0.62 (0.36, 0.87) | 0.82 (0.65, 0.99) | 0.84 (0.60, 1.08) | 0.87 (0.47, 1.27) | Moderately |  |  |  |  | synergy | bias toward additivity | moderately synergistic |
